From PubChem BioAssay (NCI)
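Five compound concentrations were applied to cells in 96-well plates for 48 hours; endpoints were derived by simple linear interpolation of the resulting dose-response curve. TGI: total growth inhibition.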

Assays:
Test in all cases: NCI-60 cell line screen, 48 h
786-0 renal = test system: 786-0 renal
A498 renal = test system: A498 renal
A549 NSCLC = test system: A549 NSCLC
ACHN renal = test system: ACHN renal
CAKI-1 renal = test system: CAKI-1 renal
CCRF-CEM leukemia = test system: CCRF-CEM leukemia
COLO 205 colon = test system: COLO 205 colon
DLD-1 colon = test system: DLD-1 colon
DMS 273 small cell lung = test system: DMS 273 small cell lung
EKVX NSCLC = test system: EKVX NSCLC
HCC-2998 colon = test system: HCC-2998 colon
HCT-116 colon = test system: HCT-116 colon
HCT-15 colon = test system: HCT-15 colon
HL-60(TB) leukemia = test system: HL-60(TB) leukemia
HOP-18 NSCLC = test system: HOP-18 NSCLC
HOP-62 NSCLC = test system: HOP-62 NSCLC
HOP-92 NSCLC = test system: HOP-92 NSCLC
HT29 colon = test system: HT29 colon
IGROV1 ovarian = test system: IGROV1 ovarian
K-562 leukemia = test system: K-562 leukemia
KM12 colon = test system: KM12 colon
KM20L2 colon = test system: KM20L2 colon
LXFL 529 NSCLC = test system: LXFL 529 NSCLC
M14 melanoma = test system: M14 melanoma
M19-MEL melanoma = test system: M19-MEL melanoma
MALME-3M melanoma = test system: MALME-3M melanoma
MOLT-4 leukemia = test system: MOLT-4 leukemia
NCI-H226 lung = test system: NCI-H226 lung
NCI-H23 lung = test system: NCI-H23 lung
NCI-H460 lung = test system: NCI-H460 lung
NCI-H522 lung = test system: NCI-H522 lung
OVCAR-3 ovarian = test system: OVCAR-3 ovarian
OVCAR-4 ovarian = test system: OVCAR-4 ovarian
OVCAR-5 ovarian = test system: OVCAR-5 ovarian
OVCAR-8 ovarian = test system: OVCAR-8 ovarian
RPMI-8226 leukemia = test system: RPMI-8226 leukemia
RXF 393 renal = test system: RXF 393 renal
RXF-631 renal = test system: RXF-631 renal
SF-268 CNS = test system: SF-268 CNS
SF-295 CNS = test system: SF-295 CNS
SF-539 CNS = test system: SF-539 CNS
SK-MEL-2 melanoma = test system: SK-MEL-2 melanoma
SK-MEL-28 melanoma = test system: SK-MEL-28 melanoma
SK-MEL-5 melanoma = test system: SK-MEL-5 melanoma
SK-OV-3 ovarian = test system: SK-OV-3 ovarian
SN12C renal = test system: SN12C renal
SNB-19 CNS = test system: SNB-19 CNS
SNB-75 CNS = test system: SNB-75 CNS
SNB-78 CNS = test system: SNB-78 CNS
SR leukemia = test system: SR leukemia
SW-620 colon = test system: SW-620 colon
TK-10 renal = test system: TK-10 renal
U251 CNS = test system: U251 CNS
UACC-257 melanoma = test system: UACC-257 melanoma
UACC-62 melanoma = test system: UACC-62 melanoma
UO-31 renal = test system: UO-31 renal
XF 498 CNS = test system: XF 498 CNS
DMS 114 small cell lung = test system: DMS 114 small cell lung
LOX IMVI melanoma = test system: LOX IMVI melanoma

N#CCC(=O)Nc1ccccc1O was tested, and the TGI (786-0 renal) was > 100 µM, the TGI (A498 renal) was > 100 µM and the TGI (A549 NSCLC) was > 100 µM. For the same compound, the TGI (ACHN renal) was > 100 µM, the TGI (CAKI-1 renal) was > 100 µM and the TGI (CCRF-CEM leukemia) was > 100 µM. For the same compound, the TGI (COLO 205 colon) was > 100 µM, the TGI (DLD-1 colon) was > 100 µM and the TGI (DMS 273 small cell lung) was > 100 µM. The TGI (EKVX NSCLC) was > 100 µM, the TGI (HCC-2998 colon) was > 100 µM and the TGI (HCT-116 colon) was > 100 µM. For the same compound, the TGI (HCT-15 colon) was > 100 µM, the TGI (HL-60(TB) leukemia) was > 100 µM and the TGI (HOP-18 NSCLC) was > 100 µM. The TGI (HOP-62 NSCLC) was > 100 µM, the TGI (HOP-92 NSCLC) was > 100 µM and the TGI (HT29 colon) was > 100 µM. For the same compound, the TGI (IGROV1 ovarian) was > 100 µM, the TGI (K-562 leukemia) was > 100 µM and the TGI (KM12 colon) was > 100 µM. The TGI (KM20L2 colon) was > 100 µM, the TGI (LXFL 529 NSCLC) was > 100 µM and the TGI (M14 melanoma) was > 100 µM. For the same compound, the TGI (M19-MEL melanoma) was > 100 µM, the TGI (MALME-3M melanoma) was > 100 µM and the TGI (MOLT-4 leukemia) was > 100 µM. For the same compound, the TGI (NCI-H226 lung) was > 100 µM, the TGI (NCI-H23 lung) was > 100 µM and the TGI (NCI-H460 lung) was > 100 µM. The TGI (NCI-H522 lung) was > 100 µM, the TGI (OVCAR-3 ovarian) was > 100 µM and the TGI (OVCAR-4 ovarian) was > 100 µM. For the same compound, the TGI (OVCAR-5 ovarian) was > 100 µM, the TGI (OVCAR-8 ovarian) was > 100 µM and the TGI (RPMI-8226 leukemia) was > 100 µM. For the same compound, the TGI (RXF 393 renal) was > 100 µM, the TGI (RXF-631 renal) was > 100 µM and the TGI (SF-268 CNS) was > 100 µM. For the same compound, the TGI (SF-295 CNS) was > 100 µM, the TGI (SF-539 CNS) was > 100 µM and the TGI (SK-MEL-2 melanoma) was > 100 µM. For the same compound, the TGI (SK-MEL-28 melanoma) was > 100 µM, the TGI (SK-MEL-5 melanoma) was > 100 µM and the TGI (SK-OV-3 ovarian) was > 100 µM. The TGI (SN12C renal) was > 100 µM, the TGI (SNB-19 CNS) was > 100 µM and the TGI (SNB-75 CNS) was > 100 µM. For the same compound, the TGI (SNB-78 CNS) was > 100 µM, the TGI (SR leukemia) was > 100 µM and the TGI (SW-620 colon) was > 100 µM. For the same compound, the TGI (TK-10 renal) was > 100 µM, the TGI (U251 CNS) was > 100 µM and the TGI (UACC-257 melanoma) was > 100 µM. For the same compound, the TGI (UACC-62 melanoma) was > 100 µM, the TGI (UO-31 renal) was > 100 µM and the TGI (XF 498 CNS) was > 100 µM.

In the case of CC(=O)OCC1=CC2CCC3C(C)(CCC[C@]3(C)COC(C)=O)C23CC[C@H]1C3 (stereo not given in full), the TGI (786-0 renal) is reported as > 100 µM, the TGI (A498 renal) is reported as > 100 µM and the TGI (A549 NSCLC) is reported as > 100 µM. For the same compound, the TGI (ACHN renal) was > 100 µM, the TGI (CAKI-1 renal) was > 100 µM and the TGI (CCRF-CEM leukemia) was 93.3 µM. For the same compound, the TGI (COLO 205 colon) was 49.3 µM, the TGI (DLD-1 colon) was > 100 µM and the TGI (DMS 114 small cell lung) was 44.3 µM. The TGI (DMS 273 small cell lung) was > 100 µM, the TGI (EKVX NSCLC) was > 100 µM and the TGI (HCC-2998 colon) was 86.3 µM. For the same compound, the TGI (HCT-116 colon) was > 100 µM, the TGI (HCT-15 colon) was > 100 µM and the TGI (HL-60(TB) leukemia) was 53.6 µM. The TGI (HOP-18 NSCLC) was > 100 µM, the TGI (HOP-62 NSCLC) was > 100 µM and the TGI (HOP-92 NSCLC) was 90.2 µM. The TGI (HT29 colon) was > 100 µM, the TGI (IGROV1 ovarian) was > 100 µM and the TGI (K-562 leukemia) was 73.3 µM. For the same compound, the TGI (KM12 colon) was > 100 µM, the TGI (KM20L2 colon) was > 100 µM and the TGI (LOX IMVI melanoma) was 62.3 µM. For the same compound, the TGI (LXFL 529 NSCLC) was > 100 µM, the TGI (M14 melanoma) was > 100 µM and the TGI (M19-MEL melanoma) was > 100 µM. For the same compound, the TGI (MALME-3M melanoma) was > 100 µM, the TGI (MOLT-4 leukemia) was 51.5 µM and the TGI (NCI-H226 lung) was > 100 µM. For the same compound, the TGI (NCI-H23 lung) was > 100 µM, the TGI (NCI-H460 lung) was > 100 µM and the TGI (NCI-H522 lung) was 45.4 µM. The TGI (OVCAR-3 ovarian) was > 100 µM, the TGI (OVCAR-4 ovarian) was > 100 µM and the TGI (OVCAR-5 ovarian) was > 100 µM. For the same compound, the TGI (OVCAR-8 ovarian) was > 100 µM, the TGI (RPMI-8226 leukemia) was 63.1 µM and the TGI (RXF 393 renal) was 93 µM. For the same compound, the TGI (RXF-631 renal) was > 100 µM, the TGI (SF-268 CNS) was > 100 µM and the TGI (SF-295 CNS) was > 100 µM. For the same compound, the TGI (SF-539 CNS) was > 100 µM, the TGI (SK-MEL-2 melanoma) was > 100 µM and the TGI (SK-MEL-28 melanoma) was > 100 µM. The TGI (SK-MEL-5 melanoma) was 58.8 µM, the TGI (SK-OV-3 ovarian) was > 100 µM and the TGI (SN12C renal) was > 100 µM. The TGI (SNB-19 CNS) was > 100 µM, the TGI (SNB-75 CNS) was > 100 µM and the TGI (SR leukemia) was 76.5 µM. For the same compound, the TGI (SW-620 colon) was > 100 µM, the TGI (TK-10 renal) was > 100 µM and the TGI (U251 CNS) was > 100 µM. The TGI (UACC-257 melanoma) was > 100 µM, the TGI (UACC-62 melanoma) was > 100 µM and the TGI (UO-31 renal) was > 100 µM. For the same compound, the TGI (XF 498 CNS) was 81.9 µM.
